From EP0354047A2, “Herbicidal method using atrazine” (MAY & BAKER LIMITED, priority 1988, dated 1990)

Key:
Format in all cases: in vivo
[1] = system: Amaranthus retroflexus; test: Experiment 3: glasshouse, post-emergence, fresh weight after 19 days, % inhibition of growth; settings: 2 leaves; for inhibition at 2 g/ha / inhibition at 4 g/ha / inhibition at 8 g/ha / inhibition at 16 g/ha / inhibition at 31 g/ha / inhibition at 63 g/ha: Amaranthus retroflexus, post-emergence
Description: (§1) A series of experiments was carried out to determine the nature of the biological interaction between atrazine and five compounds of general formula I on a range of weed species. […] The growth stages of the plants at spraying are also presented with the results. Agricultural surfactant (nonyl phenol ethylene oxide condensate containing 9 moles ethylene oxide marketed as 'Agral') was added to all spray dilutions to give 0.2% v/v concentration. […] After 19 days the fresh weight of vegetation in each pot was determined. […] E = […]00003:character} where E, X and Y are percentage inhibition of growth. In addition, the ED50 or ED90 values (the application rates giving 50% or 90% inhibition of growth, respectively) were calculated from the results for the piperidinedione alone and with increasing rates of atrazine.

[2] = system: Eleusine indica (ELEIN); test: Experiment 1: field experiment, post-emergence spray, % control 29 days after application
Description: (§2) Duplicate 12m² plots were sprayed post-emergence with 250g or 500g/ha Compound 1 (in a composition according to Example 1 as described hereinafter) or 1500g/ha atrazine (in a commercial aqueous suspension concentrate formulation containing 500g/l w/v atrazine or a combination (as a tank mix) of the two herbicides in a volume of 300 litres/ha. The following control figures were recorded on the grass weeds Brachiaria plantaginea (BRAPL), Digitaria horizontalis (DIGHO) and Eleusine indica (ELEIN) 29 days after application.

[3] = system: Digitaria horizontalis (DIGHO); test: as above
Description: as §2

[4] = system: Brachiaria plantaginea (BRAPL); test: as above
Description: as §2

[5] = system: Brassica kaber; test: Experiment 3: glasshouse, post-emergence, fresh weight after 19 days, % inhibition of growth; settings: 2 leaves; for inhibition at 2 g/ha / inhibition at 4 g/ha / inhibition at 8 g/ha / inhibition at 16 g/ha / inhibition at 31 g/ha / inhibition at 63 g/ha: Mutarda arvensis, post-emergence
Description: as §1

[6] = system: Sida spinosa; test: Experiment 4: glasshouse, pre-emergence, fresh weight after 27 days, % inhibition of growth; settings: for % inhibition of growth: Atrazine 0 g/ha
Description: (§3) Glasshouse experiments showing the biological interaction between atrazine and Compound 99 on weed species when applied pre-emergence. […] After 27 days the fresh weight of vegetation in each pot was determined. […] E = […]00005:character} where E, X and Y are percentage inhibition of growth. In addition the ED90 values (the application rate giving 90% inhibition of growth) were calculated from the results for Compound 99 alone and with increasing rates of atrazine. The ED90 values were then used to plot an isobole for each species according to the method of […] op cit. The results of percentage inhibition of growth, the ED values calculated from them and the calculated expected values are given in Table 8.

[7] = system: Brassica kaber; test: as above; settings: for % inhibition of growth: Atrazine 0 g/ha
Description: as §3

[8] = system: Solanum nigrum; test: Experiment 3: glasshouse, post-emergence, fresh weight after 19 days, % inhibition of growth; settings: for inhibition at 2 g/ha / inhibition at 4 g/ha / inhibition at 8 g/ha / inhibition at 16 g/ha / inhibition at 31 g/ha / inhibition at 63 g/ha: Solanum nigrum, post-emergence
Description: as §1

CC1(C)CC(=O)C(C(=O)c2ccc(Cl)cc2[N+](=O)[O-])C(=O)N1 (stereo not drawn) [Compound 1, 3-(4-chloro-2-nitrobenzoyl)-6,6-dimethylpiperidine-2,4-dione]
inhibition at 2 g/ha ([1]; Compound 1 2 g/ha alone): 25%
inhibition at 4 g/ha ([1]; Compound 1 4 g/ha alone): 52%
inhibition at 8 g/ha ([1]; Compound 1 8 g/ha alone): 73%
inhibition at 16 g/ha ([1]; Compound 1 16 g/ha alone): 87%
inhibition at 31 g/ha ([1]; Compound 1 31 g/ha alone): 95%
inhibition at 63 g/ha ([1]; Compound 1 63 g/ha alone): 96%
ED₉₀ ([1]; Compound 1 alone): ED₉₀(g/ha) 22.58
% control observed ([2]; Compound 1 @ 250g/ha): 70%
% control observed ([2]; Compound 1 @ 500g/ha): 80%
% control observed ([3]; Compound 1 @ 250g/ha): 70%
% control observed ([3]; Compound 1 @ 500g/ha): 80%
% control observed ([4]; Compound 1 @ 250g/ha): 60%
% control observed ([4]; Compound 1 @ 500g/ha): 80%

CC1(C)CC(=O)C(C(=O)c2ccc(C(F)(F)F)cc2[N+](=O)[O-])C(=O)N1 (stereo not drawn) [Compound 99, 3-(2-nitro-4-trifluoromethylbenzoyl)-6,6-dimethylpiperidine-2,4-dione]
inhibition at 2 g/ha ([1]; Compound 99 2 g/ha alone): 37%
inhibition at 4 g/ha ([1]; Compound 99 4 g/ha alone): 85%
inhibition at 8 g/ha ([1]; Compound 99 8 g/ha alone): 88%
inhibition at 16 g/ha ([1]; Compound 99 16 g/ha alone): 80%
inhibition at 31 g/ha ([1]; Compound 99 31 g/ha alone): 91%
inhibition at 63 g/ha ([1]; Compound 99 63 g/ha alone): 98%
ED₉₀ ([1]; Compound 99 alone): ED₉₀(g/ha) 14
ED₉₀ ([5]; Compound 99 alone): ED₉₀(g/ha) 31
inhibition at 2 g/ha ([5]; Compound 99 2 g/ha alone): 22%
inhibition at 4 g/ha ([5]; Compound 99 4 g/ha alone): 40%
inhibition at 8 g/ha ([5]; Compound 99 8 g/ha alone): 69%
inhibition at 16 g/ha ([5]; Compound 99 16 g/ha alone): 58%
inhibition at 31 g/ha ([5]; Compound 99 31 g/ha alone): 91%
inhibition at 63 g/ha ([5]; Compound 99 63 g/ha alone): 91%
% inhibition of growth ([6]; Compound 99 8 g/ha): 0%
% inhibition of growth ([6]; Compound 99 16 g/ha): 17%
% inhibition of growth ([6]; Compound 99 31 g/ha): 26%
% inhibition of growth ([6]; Compound 99 63 g/ha): 52%
% inhibition of growth ([6]; Compound 99 125 g/ha): 88%
% inhibition of growth ([6]; Compound 99 250 g/ha): 97%
ED₉₀ ([6]; Compound 99 alone): ED₉₀(g/ha) 146.26
% inhibition of growth ([7]; Compound 99 8 g/ha): 0%
% inhibition of growth ([7]; Compound 99 16 g/ha): 9%
% inhibition of growth ([7]; Compound 99 31 g/ha): 10%
% inhibition of growth ([7]; Compound 99 63 g/ha): 32%
% inhibition of growth ([7]; Compound 99 125 g/ha): 20%
% inhibition of growth ([7]; Compound 99 250 g/ha): 90%
ED₉₀ ([7]; Compound 99 alone): ED₉₀(g/ha) 340.34

CS(=O)(=O)c1ccc(C(=O)C2C(=O)CCNC2=O)c([N+](=O)[O-])c1 (stereo not drawn) [Compound 110, 3-(4-methylsulphonyl-2-nitrobenzoyl)piperidine-2,4-dione]
ED₉₀ ([8]; Compound 110 alone, 1 leaf): ED₉₀(g/ha) 5.87
inhibition at 2 g/ha ([8]; Compound 110 2 g/ha alone, 1 leaf): 38%
inhibition at 4 g/ha ([8]; Compound 110 4 g/ha alone, 1 leaf): 80%
inhibition at 8 g/ha ([8]; Compound 110 8 g/ha alone, 1 leaf): 98%
inhibition at 16 g/ha ([8]; Compound 110 16 g/ha alone, 1 leaf): 100%
inhibition at 31 g/ha ([8]; Compound 110 31 g/ha alone, 1 leaf): 100%
inhibition at 63 g/ha ([8]; Compound 110 63 g/ha alone, 1 leaf): 100%
ED₉₀ ([5]; Compound 110 alone): ED₉₀(g/ha) 6.38
inhibition at 2 g/ha ([5]; Compound 110 2 g/ha alone): 45%
inhibition at 4 g/ha ([5]; Compound 110 4 g/ha alone): 84%
inhibition at 8 g/ha ([5]; Compound 110 8 g/ha alone): 98%
inhibition at 16 g/ha ([5]; Compound 110 16 g/ha alone): 99%
inhibition at 31 g/ha ([5]; Compound 110 31 g/ha alone): 100%
inhibition at 63 g/ha ([5]; Compound 110 63 g/ha alone): 100%

CS(=O)(=O)c1ccc(C(=O)C2C(=O)CCNC2=O)c(Cl)c1 (stereo not drawn) [Compound 126, 3-(2-chloro-4-methylsulphonylbenzoyl)piperidine-2,4-dione]
ED₉₀ ([8]; Compound 126 alone, 2 leaves): ED₉₀(g/ha)4.18
inhibition at 2 g/ha ([8]; Compound 126 2 g/ha alone, 2 leaves): 72%
inhibition at 4 g/ha ([8]; Compound 126 4 g/ha alone, 2 leaves): 90%
inhibition at 8 g/ha ([8]; Compound 126 8 g/ha alone, 2 leaves): 97%
inhibition at 16 g/ha ([8]; Compound 126 16 g/ha alone, 2 leaves): 100%
inhibition at 31 g/ha ([8]; Compound 126 31 g/ha alone, 2 leaves): 100%
inhibition at 63 g/ha ([8]; Compound 126 63 g/ha alone, 2 leaves): 100%
ED₅₀ ([5]; Compound 126 alone): ED₅₀(g/ha) 28.09
inhibition at 2 g/ha ([5]; Compound 126 2 g/ha alone): 0%
inhibition at 4 g/ha ([5]; Compound 126 4 g/ha alone): 0%
inhibition at 8 g/ha ([5]; Compound 126 8 g/ha alone): 0%
inhibition at 16 g/ha ([5]; Compound 126 16 g/ha alone): 42%
inhibition at 31 g/ha ([5]; Compound 126 31 g/ha alone): 69%
inhibition at 63 g/ha ([5]; Compound 126 63 g/ha alone): 66%
